Data from PubChem BioAssay AID248 (DTP/NCI, 2004).
Values joined by “and” are separate entries in the source; they are usually repeats but may differ in a detail not shown here. Equal values may be shown once. Inconclusive results and toxic doses are left out. No stated cut-off is given here; in the data, active means T/C of 150% or more; inactive means T/C below 125%.

Test system: L1210 leukemia ip in BDF1 mice, survival T/C
Experiment: NCI In Vivo Anticancer Drug Screen. Data for tumor model L1210 Leukemia (intraperitoneal) in B6D2F1 (BDF1) mice
Conditions: endpoint: mean survival time, higher = longer survival
How it was run: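 Value reflects the ratio of survival in compound-treated mice to survival in vehicle-treated controls, with both groups carrying the same transplanted tumor.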

[1] = dose: 50.0 mg/kg/injection, schedule: Q01DX001 (ip), vehicle: saline
[2] = dose: 100.0 mg/kg/injection, schedule: Q01DX001 (ip), vehicle: saline
[3] = dose: 200.0 mg/kg/injection, schedule: Q01DX001 (ip), vehicle: saline
[4] = dose: 400.0 mg/kg/injection, schedule: Q01DX001 (ip), vehicle: saline
[5] = dose: 100.0 mg/kg/injection, schedule: Q01DX001 (ip), vehicle: Klucel (hydroxypropylcellulose) (HPC)
[6] = dose: 200.0 mg/kg/injection, schedule: Q01DX001 (ip), vehicle: Klucel (hydroxypropylcellulose) (HPC)
[7] = dose: 400.0 mg/kg/injection, schedule: Q01DX001 (ip), vehicle: Klucel (hydroxypropylcellulose) (HPC)
[8] = dose: 100.0 mg/kg/injection, schedule: Q04DX003 (ip), vehicle: saline with Tween-80
[9] = dose: 200.0 mg/kg/injection, schedule: Q04DX003 (ip), vehicle: saline with Tween-80
[10] = dose: 400.0 mg/kg/injection, schedule: Q04DX003 (ip), vehicle: saline with Tween-80
[11] = dose: 100.0 mg/kg/injection, schedule: Q01DX009 (ip), vehicle: saline with Tween-80
[12] = dose: 75.0 mg/kg/injection, schedule: Q04DX003 (ip), vehicle: Klucel (hydroxypropylcellulose) (HPC)
[13] = dose: 150.0 mg/kg/injection, schedule: Q04DX003 (ip), vehicle: Klucel (hydroxypropylcellulose) (HPC)
[14] = dose: 300.0 mg/kg/injection, schedule: Q04DX003 (ip), vehicle: Klucel (hydroxypropylcellulose) (HPC)
[15] = dose: 100.0 mg/kg/injection, schedule: Q04DX003 (ip), vehicle: saline
[16] = dose: 200.0 mg/kg/injection, schedule: Q04DX003 (ip), vehicle: saline
[17] = dose: 400.0 mg/kg/injection, schedule: Q04DX003 (ip), vehicle: saline
[18] = dose: 100.0 mg/kg/injection, schedule: Q01DX009 (ip), vehicle: Klucel (hydroxypropylcellulose) (HPC)
[19] = dose: 200.0 mg/kg/injection, schedule: Q01DX009 (ip), vehicle: Klucel (hydroxypropylcellulose) (HPC)
[20] = dose: 400.0 mg/kg/injection, schedule: Q01DX009 (ip), vehicle: Klucel (hydroxypropylcellulose) (HPC)
[21] = dose: 100.0 mg/kg/injection, schedule: Q04DX003 (ip), vehicle: Klucel (hydroxypropylcellulose) (HPC)
[22] = dose: 200.0 mg/kg/injection, schedule: Q04DX003 (ip), vehicle: Klucel (hydroxypropylcellulose) (HPC)
[23] = dose: 400.0 mg/kg/injection, schedule: Q04DX003 (ip), vehicle: Klucel (hydroxypropylcellulose) (HPC)
[24] = dose: 100.0 mg/kg/injection, schedule: Q01DX009 (ip), vehicle: saline
[25] = dose: 200.0 mg/kg/injection, schedule: Q01DX009 (ip), vehicle: saline
[26] = dose: 400.0 mg/kg/injection, schedule: Q01DX009 (ip), vehicle: saline
[27] = dose: 100.0 mg/kg/injection, schedule: Q04DX002 (ip), vehicle: Klucel (hydroxypropylcellulose) (HPC)
[28] = dose: 200.0 mg/kg/injection, schedule: Q04DX002 (ip), vehicle: Klucel (hydroxypropylcellulose) (HPC)
[29] = dose: 400.0 mg/kg/injection, schedule: Q04DX002 (ip), vehicle: Klucel (hydroxypropylcellulose) (HPC)

Measured: T/C

O=NN(Cc1ccccc1)Cc1ccccc1
inactive: [1] 104 % of control | [2] 102 % of control | [3] 98 % of control | [4] 104 % of control

CC(C)(C)OC(=O)COc1ccc(NC(=O)COc2ccc(Cl)c(Cl)c2)cc1
inactive: [5] 101 % of control | [6] 101 % of control | [7] 101 % of control

CCc1c(Nc2ccccc2Cl)nc(N)[nH]c1=O
inactive: dose: 100.0 mg/kg/injection, schedule: Q01DX Z (ip), vehicle: methylcellulose (MC) 95 % of control

COc1cc(I)cc(OC)c1OC
inactive: [8] 97 % of control | [9] 94 % of control | [10] 100 % of control

O=Cc1ccc(/C=C2\C=Cc3ccccc32)cc1
inactive: [8] 93 % of control | [9] 91 % of control | [10] 92 % of control

CCCCNCCC(SS)c1ccc(Cl)cc1 (stereo unspecified)
inactive: dose: 50.0 mg/kg/injection, schedule: Q01DX009 (ip), vehicle: saline with Tween-80 106 % of control | [11] 92 % of control | [8] 88 % of control | [9] 93 % of control

Nc1ncc(Br)cc1Br
inactive: [11] 94 % of control | [8] 101 % of control | dose: 200.0 mg/kg/injection, schedule: Q01DX009 (ip), vehicle: saline with Tween-80 108 % of control | [9] 95 % of control | dose: 400.0 mg/kg/injection, schedule: Q01DX009 (ip), vehicle: saline with Tween-80 116 % of control | [10] 97 % of control

Cc1c([N+](=O)[O-])cc(C(=O)c2ccccc2C(=O)O)cc1[N+](=O)[O-]
inactive: [12] 98 % of control | [13] 91 % of control | [14] 91 % of control

CCOP(=O)(OCC)Oc1ccccc1
inactive: [15] 91 % of control | [16] 92 % of control | [17] 94 % of control

CC(=O)CC(C)=Nc1cccc(Cl)c1
inactive: [5] 106 % of control | [18] 92 % of control | [6] 103 % of control | [19] 108 % of control | [7] 100 % of control | [20] 94 % of control

O=S(=O)(c1ccc(NC(=S)Oc2ccccc2)cc1)c1ccc(NC(=S)Oc2ccccc2)cc1
inactive: [2] 104 % of control | [3] 104 % of control

CCCCCCCCCCCC(=O)N(C)C
inactive: [21] 109 % of control | [22] 111 % of control | [23] 109 % of control

C/C(=C/c1ccc(/C=C(\C)[N+](=O)[O-])cc1)[N+](=O)[O-]
inactive: dose: 10.0 mg/kg/injection, schedule: Q01DX001 (ip), vehicle: acetone 106 % of control

CCN(CC)C(=O)Cn1cc(F)c(N)nc1=O
inactive: [24] 98 % of control | [15] 92 % of control | [25] 107 % of control | [16] 92 % of control | [26] 94 % of control | [17] 95 % of control

Fc1ccc(NC(=S)NCCN2CCCC2)cc1
inactive: dose: 25.0 mg/kg/injection, schedule: Q01DX009 (ip), vehicle: Klucel (hydroxypropylcellulose) (HPC) 100 % of control | dose: 50.0 mg/kg/injection, schedule: Q01DX009 (ip), vehicle: Klucel (hydroxypropylcellulose) (HPC) 117 % of control | [18] 100 % of control and 102 % of control

NC(N)=N/N=C/c1nccc2ccccc12
inactive: [1] 102 % of control | [2] 102 % of control

O=C(CCN1CCCCC1)c1ccccc1
inactive: dose: 5.0 mg/kg/injection, schedule: Q04DX003 (ip), vehicle: saline 96 % of control | dose: 10.0 mg/kg/injection, schedule: Q04DX003 (ip), vehicle: saline 103 % of control | dose: 20.0 mg/kg/injection, schedule: Q04DX003 (ip), vehicle: saline 94 % of control

C/C(CCCCl)=N/NC(N)=S
inactive: dose: 6.25 mg/kg/injection, schedule: Q01DX009 (ip), vehicle: saline 98 % of control | dose: 6.25 mg/kg/injection, schedule: Q04DX003 (ip), vehicle: saline with Tween-80 98 % of control | dose: 12.5 mg/kg/injection, schedule: Q01DX009 (ip), vehicle: saline 107 % of control | dose: 12.5 mg/kg/injection, schedule: Q04DX003 (ip), vehicle: saline with Tween-80 92 % of control | dose: 25.0 mg/kg/injection, schedule: Q04DX003 (ip), vehicle: saline with Tween-80 90 % of control | dose: 100.0 mg/kg/injection, schedule: Q01DX001 (ip), vehicle: acetone 100 % of control | dose: 200.0 mg/kg/injection, schedule: Q01DX001 (ip), vehicle: acetone 90 % of control

C/C(=N\O)c1ccc2nc(C)cc(Cl)c2c1
inactive: [2] 102 % of control | [3] 109 % of control | [4] 95 % of control

N#CNc1nc(-c2ccccc2)cc(-c2ccccc2O)n1
inactive: [27] 98 % of control | [28] 95 % of control | [29] 109 % of control

Oc1cccc(NC(=S)Nc2ccccc2)c1
inactive: [1] 100 % of control | [2] 94 % of control | [3] 97 % of control | [4] 97 % of control

CC(C)CCC1(c2ccccc2)C(=O)NC(=O)NC1=O
inactive: [2] 92 % of control

CC12CC1(C)C(=O)OC2=O (stereo unspecified)
inactive: [8] 87 % of control | [9] 92 % of control

CC(=O)Nc1nc(C=O)c(CCCCc2ccccc2)c(=O)[nH]1
inactive: dose: 80.0 mg/kg/injection, schedule: Q01DX001 (ip), vehicle: Klucel (hydroxypropylcellulose) (HPC) 102 % of control | dose: 160.0 mg/kg/injection, schedule: Q01DX001 (ip), vehicle: Klucel (hydroxypropylcellulose) (HPC) 107 % of control | dose: 320.0 mg/kg/injection, schedule: Q01DX001 (ip), vehicle: Klucel (hydroxypropylcellulose) (HPC) 107 % of control

CCOC(=O)Nc1ccc(Cl)c(Cl)c1
inactive: [18] 98 % of control | [19] 101 % of control | [20] 108 % of control

C=CCN1/C(=C\C=C\c2ccc3cc(C)ccc3[n+]2CC=C)C=Cc2cc(C)ccc21
inactive: dose: 1.17 mg/kg/injection, schedule: Q01DX001 (ip), vehicle: steriod suspending solution 111 % of control

CC(=O)Nc1ccc(OC(=O)Nc2ccc(Cl)c([N+](=O)[O-])c2)cc1
inactive: [18] 97 % of control | [21] 112 % of control | [19] 104 % of control | [22] 97 % of control | [20] 93 % of control | [23] 92 % of control

Cc1cc(C)c(-c2c(O)c(Br)c(C)c(O)c2Br)c(C)c1Br
inactive: [12] 97 % of control | [13] 97 % of control | [14] 92 % of control

CSc1ncnc2c1nnn2C1CC(CO)C(O)C1O (stereo unspecified)
inactive: [5] 95 % of control | [6] 101 % of control | [7] 102 % of control

O=C1CCCCC1CCCBr (stereo unspecified)
inactive: dose: 100.0 mg/kg/injection, schedule: Q01DX001 (ip), vehicle: saline with Tween-80 102 % of control | dose: 200.0 mg/kg/injection, schedule: Q01DX001 (ip), vehicle: saline with Tween-80 98 % of control | dose: 400.0 mg/kg/injection, schedule: Q01DX001 (ip), vehicle: saline with Tween-80 95 % of control

CCCCS(=O)(=O)CCN1C(=O)C2C3CCC(O3)C2C1=O (stereo unspecified)
inactive: [27] 98 % of control | [28] 123 % of control | [29] 107 % of control

CCCCCCc1c(C(OC)OC)[nH]c(=S)[nH]c1=O
inactive: [18] 91 % of control | [21] 96 % of control | [19] 87 % of control | [22] 98 % of control | [20] 87 % of control | [23] 96 % of control

Nc1ncnc2c1ncn2C1CC(O)C(O)CO1 (stereo unspecified)
inactive: [2] 105 % of control | [3] 106 % of control | [4] 105 % of control

O=C(O)C1C2CCCCC21 (stereo unspecified)
inactive: [24] 97 % of control | [15] 102 % of control | [25] 97 % of control | [16] 103 % of control | [26] 90 % of control | [17] 94 % of control
